27 molecules from publication PMC8545574, “Antioxidant, Anti-Inflammatory, and Antidiabetic Activities of Bioactive Compounds from the Fruits of Livistona chinensis Based on Network Pharmacology Prediction” (Oxidative Medicine and Cellular Longevity, 2021) can be followed below.

Values after ≈ are worked out from the molar mass of the structure shown. Values joined by “and” are separate entries in the source; they are usually repeats but may differ in a detail not shown here. Identical values can stand only once. Like-named read-outs stand apart in the source and are kept apart here.

The IC50 is the midpoint of a concentration-inhibition curve.

A short description of assay [1]: DPPH free radical scavenging assay. The class given is biochemical. Conditions: mean ± SD, n = 3. On the procedure: The DPPH free radical scavenging assay was performed according to a previously reported method. A series of different concentrations of the tested samples and the positive control ascorbic acid were mixed with freshly prepared DPPH (0.2 mM) in a 96-well microplate with a total volume of 150 μL. After leaving the mixture to react in the dark for 30 min, its absorbance was determined at 517 nm. All of the wells with only samples were set as blanks to obtain an absorbance value, which was subtracted from the test sample readings. The percentage inhibition (%) for each sample was calculated by the following formula: (1) Inhibition %=Absblank−Abssamples/Absblank×100%, where Absblank and Abssamples correspond to the absorbance units (at 517 nm) of DPPH solutions incubated in the absence and presence of the tested samples.
(In general: The DPPH test is a chemical assay of radical scavenging.)

Assay [2] concerns the target α-Glucosidase (from Baker's yeast). The experiment in a line: α-Glucosidase inhibitory assay (p-NPG substrate). Conditions: read-out: IC50 α-Glucosidase inhibitory effect; mean ± SD, n = 3.
Experimental: The extract, fractions, and compounds were dissolved in 5% DMSO and then diluted with phosphate buffer. Briefly, 80 μL PBS, 20 μL of varying concentrations of sample solutions, and 20 μL α-glucosidase solution (1.3 U/mL) were mixed and incubated in 96-well plates at 37°C for 5 min. The reaction started when 20 μL p-nitrophenyl-α-D-glucopyranoside (2.5 mM) was added to the plate. The reaction mixture was incubated for 15 min at 37°C, and then, 80 μL Na2CO3 (0.2 M) was added to stop the reaction.
For the next assay, the target named is T1, PTP1B (Homo sapiens, UniProt P18031).
T1 sequence (P18031 1-321 limits assumed): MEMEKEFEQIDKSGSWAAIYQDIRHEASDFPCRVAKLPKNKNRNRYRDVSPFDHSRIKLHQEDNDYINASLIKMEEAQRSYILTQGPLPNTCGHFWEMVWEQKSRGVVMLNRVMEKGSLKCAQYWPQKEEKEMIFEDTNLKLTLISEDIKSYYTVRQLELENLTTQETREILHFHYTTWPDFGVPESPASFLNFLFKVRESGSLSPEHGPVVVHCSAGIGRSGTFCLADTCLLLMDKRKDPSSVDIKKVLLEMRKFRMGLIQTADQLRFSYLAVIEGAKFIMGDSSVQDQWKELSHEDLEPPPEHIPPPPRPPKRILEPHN
The assay is described as follows: PTP1B inhibitory assay (p-NPP substrate).

Assay [3] has as its system LPS-stimulated NO release in RAW 264.7 cells. The experiment in a line: Nitrite (Griess) assay of LPS-stimulated NO release. The class given is cell-based. On the procedure: The level of NO production was tested by measuring the nitrite level in the culture medium with the Griess method. Cells were seeded at a density of 2 × 10^4 cells per well in 96-well plates. […] A microplate reader was employed for the optical density measurement at 570 nm.

Assay [4] can be described thus: ABTS radical cation scavenging assay. The class given is biochemical. Conditions: mean ± SD, n = 3. On the procedure:
The ABTS radical cation (ABTS·+) was prepared by reacting ABTS with potassium persulfate following the method previously described. The ABTS radical cation (ABTS·+) was prepared by mixing with 2.45 mM potassium persulfate and equal volumes of an ABTS solution (7 mM), and then, they were permitted to react in the darkness at room temperature for 12–16 h. Thereafter, the ABTS reagent was diluted with methyl alcohol until reaching an absorbance of 0.70 ± 0.02 units at 734 nm. In a 96-well microplate, ABTS reagent (190 μL in each well) and samples (10 μL in each well) were incubated at room temperature for 20 min. To determine the antioxidant capacity by the ABTS method, the experimental conditions and protocol were identical to those of the DPPH assay. The only difference was that the absorbance was measured at 734 nm.

Where [5] appears, read: Mus musculus, RAW264.7, LPS (1 μg/mL)-stimulated RAW 264.7 cells, mean ± SD, n = 3, read-out: IC50 NO production anti-inflammatory effect.

Experimental for PTP1B: PTP1B (10 μg/mL stock solution) was dissolved in 10 mM citrate buffer (pH 6.0), 1 mM dithiothreitol (DTT), and 1 mM N, N, N′, N′-ethylenediaminetetraacetate (EDTA). 20.0 μL PTP1B stock solution and 60 μL citrate buffer were added to each well of a 96-well plastic plate.

In the case of `COc1cc([C@@H](O)[C@H](CO)Oc2c(OC)cc([C@@H]3OC[C@@H]4[C@H]3CO[C@H]4c3ccc(O)c(OC)c3)cc2OC)ccc1O` (single isomer, unassigned) [Compound 33], the IC50 turned out to be 66.67 ± 0.52 µM in assay [1]; 50.9 ± 1.78 µM in assay [2]; 62.1 ± 0.73 µM on PTP1B (read-out: IC50 PTP1B inhibitory effect, mean ± SD, n = 3); 47.4 ± 0.85 µM in assay [3] (setting [5]); 33.4 ± 0.45 µM in assay [4].
Consider `O=C1O[C@H]([C@@H](O)CO)C(O)=C1O` [Ascorbic acid, reference compound], for which the “IC50 DPPH scavenging activity” value in assay [1] (extract and fractions) stood at 6.18 ± 0.18 mg/L (≈ 35.1 µM). Besides, the IC50 is 35.1 ± 1.02 µM in assay [1] and 50.9 ± 1.25 µM in assay [4]. Besides, the “IC50 ABTS scavenging activity” value in assay [4] (extract and fractions) was 8.96 ± 0.22 mg/L (≈ 50.9 µM).
In the case of `Oc1ccc([C@H]2Oc3cc(O)cc(O)c3C[C@H]2O)cc1` [Compound 2, (-)-epiafzelechin], the IC50 came out at 43.4 ± 0.46 µM in assay [1], 62.5 ± 1.92 µM in assay [2], 39.25 ± 0.14 µM against PTP1B and 15 ± 0.11 µM in assay [4].
Consider `Oc1cc(O)c2c(c1)O[C@H](c1ccc(O)c(O)c1)[C@@H](O)C2` [Compound 3, (+)-catechin], for which the IC50 came to 26.4 ± 0.39 µM in assay [1], 89 ± 1.95 µM in assay [2], 91.78 ± 0.68 µM against PTP1B and 11.29 ± 0.09 µM in assay [4].
Turning to `Oc1cc(O)c2c(c1)O[C@H](c1ccc(O)c(O)c1)[C@H](O)C2` [Compound 4, (-)-epicatechin], the IC50 in assay [1] amounted to 32 ± 0.37 µM; in assay [2], 24 ± 0.38 µM; against PTP1B it was 38.66 ± 0.21 µM; in assay [4], 13.46 ± 0.09 µM.
Turning to `COc1cc(O)c2c(=O)cc(-c3ccc(O)cc3)oc2c1` [Compound 7, genkwanin], the IC50 is 78.76 ± 0.61 µM in assay [1]; > 100 µM in assay [2]; 30.2 ± 0.45 µM on PTP1B; 70.79 ± 0.67 µM in assay [3] (setting [5]); 63.11 ± 0.24 µM in assay [4].
As to `COc1cc(-c2cc(=O)c3c(O)cc(O)cc3o2)cc(OC)c1O` [Compound 8, tricin], the IC50 in assay [1] was 61.25 ± 0.31 µM; in assay [2], > 100 µM; at PTP1B it was > 100 µM; in assay [4] it was 24.1 ± 0.32 µM.
Turning to `O=c1cc(-c2ccc(O)cc2)oc2c([C@@H]3O[C@H](CO)[C@@H](O)[C@H](O)[C@H]3O)c(O)cc(O)c12` [Compound 9, vitexin], the concentration for half-maximal inhibition (IC50) in assay [1] was found to be 92.26 ± 0.32 µM; in assay [2], 98.6 ± 1.2 µM; against PTP1B, 30.6 ± 0.48 µM; in assay [4], 85.04 ± 0.24 µM.
With `COc1cc(-c2cc(=O)c3c(O)cc(O[C@@H]4O[C@H](CO)[C@@H](O)[C@H](O)[C@H]4O)cc3o2)cc(OC)c1O` [Compound 10, tricin-7-O-β-D-glucoside], the IC50 is > 100 µM in assay [1]; > 100 µM in assay [2]; 65.8 ± 1.47 µM in assay [3] (Mus musculus, RAW264.7, read-out: IC50 NO production anti-inflammatory effect); 91.1 ± 1.1 µM in assay [4].
`COc1cc(-c2oc3cc(O)cc(O)c3c(=O)c2O[C@@H]2O[C@H](CO)[C@@H](O)[C@H](O)[C@H]2O)ccc1O` [Compound 11, isorhamnetin-3-O-β-D-glucoside]: the concentration for half-maximal inhibition (IC50) in assay [1] is 21.8 ± 0.26 µM; in assay [2], > 100 µM; in assay [4] it was 36.71 ± 0.33 µM.
Turning to `C[C@@H]1O[C@@H](O[C@H]2C(=O)c3c(O)cc(O)cc3O[C@@H]2c2ccc(O)c(O)c2)[C@H](O)[C@H](O)[C@H]1O` [Compound 12, astilbin], the IC50 in assay [1] was 46.46 ± 0.4 µM; in assay [2], > 100 µM; at PTP1B it was > 100 µM; in assay [4] it was 43.1 ± 0.29 µM.
Take `COc1cc(C2Oc3c(OC)cc(CCCO)cc3C2CO)ccc1O` [Compound 13, (7S,8R)-dihydrodehydrodiconiferyl alcohol]: the concentration for half-maximal inhibition (IC50) is 87.78 ± 0.74 µM in assay [1]; 88.62 ± 0.49 µM in assay [2]; > 100 µM at PTP1B; 76.69 ± 0.51 µM in assay [3] (setting [5]); 24.6 ± 0.31 µM in assay [4].
With `COc1cc(C2Oc3c(OC)cc(CCCO)cc3C2CO)cc(OC)c1O` [Compound 14, (7S,8R)-5-methoxydihydrodehydroconiferyl alcohol], the IC50 in assay [1] was 60.3 ± 0.16 µM; in assay [2], 62.2 ± 1.03 µM; against PTP1B, > 100 µM; in assay [3] (setting [5]) it was 70 ± 5.33 µM; in assay [4], 45.13 ± 0.41 µM.
`COc1cc(C2Oc3c(OC)cc(CCCO)cc3C2CO)ccc1OC(CO)CO` [Compound 15, (7S,8R)-9,9′-dihydroxyl-3,3′-dimethoxyl-4-O-glycerol-7,8-dihydrobenzofuran-1′-propanolneoligan]: the IC50 in assay [1] is > 100 µM; in assay [2] it was > 100 µM; against PTP1B it was > 100 µM; in assay [3] (setting [5]) it was 13.2 ± 0.36 µM; in assay [4], > 100 µM.
As to `COc1cc(C2Oc3c(OC)cc(CCCO)cc3C2CO)ccc1OC1OC(CO)C(O)C(O)C1O` [Compound 16, (7S,8R)-dihydrodehydrodiconiferyl alcohol-4-O-β-D-glucopyranoside], the IC50 is > 100 µM in assay [1]; > 100 µM in assay [2]; > 100 µM at PTP1B; 36.7 ± 0.8 µM in assay [3] (setting [5]); > 100 µM in assay [4].
On to `COc1cc([C@@H](O)[C@H](CO)Oc2c(OC)cc(CCCO)cc2OC)ccc1O[C@@H]1O[C@H](CO)[C@@H](O)[C@H](O)[C@H]1O` [Compound 24, erythro-(7R,8S)-7,9,9-trihydroxy-3,3,5-trimethoxy-8-O-4-neolignan-4-O-β-D-glucopyranoside], for which the IC50 (in assay [1]; against PTP1B; in assay [4]) was > 100 µM in each case.
Consider `COc1cc(CCCO)cc(OC)c1OC(CO)CO` [Compound 26, 2-[4-(3-hydroxy-propyl)-2,6-dimethoxyphenoxy]-propane-1,3-diol], for which the IC50 is > 100 µM in assay [1], 56.52 ± 0.45 µM in assay [2] and > 100 µM in assay [4].
For the molecule `COc1cc([C@@H]2OC[C@H]3C(=O)OC[C@H]32)ccc1O` [Compound 27, salicifoliol], the IC50 is > 100 µM in assay [1], > 100 µM in assay [2], 66.86 ± 0.51 µM in assay [3] (setting [5]) and 41.98 ± 0.33 µM in assay [4].
`COc1cc([C@@H]2OC(=O)[C@@H]3[C@H]2CO[C@H]3c2ccc(O)c(OC)c2)ccc1O` [Compound 28, 4-ketopinoresinol]: the IC50 in assay [1] is > 100 µM; in assay [2] it was > 100 µM; in assay [3] (setting [5]), 14.8 ± 1.2 µM; in assay [4] it was 20.4 ± 0.23 µM.
For `COc1cc([C@H]2OC[C@H]3[C@@H]2CO[C@@H]3c2cc(OC)c(O)c(OC)c2)cc(OC)c1O` [Compound 31, (+)-syringaresinol], the half-maximal inhibitory concentration (IC50) in assay [1] came to 65.4 ± 1.48 µM; in assay [2] it was 49.1 ± 1.1 µM; in assay [3] (setting [5]), 48.98 ± 0.39 µM; in assay [4], 23.7 ± 0.25 µM.
Take `COc1cc(C(=O)O)ccc1O` [Compound 37, vanillic acid]: the figures for the IC50 in assay [1] and in assay [4] were > 100 µM and 88.32 ± 0.12 µM, respectively.
For `O=C(O)c1ccc(O)c(O)c1` [Compound 38, protocatechuic acid], the figures for the IC50 (in assay [1]; against PTP1B; in assay [4]) were 33.1 ± 0.79 µM, 44.75 ± 0.12 µM and 63.25 ± 0.51 µM, respectively.
For `COc1ccc(C(=O)O)cc1O` [Compound 41, isovanillic acid] the same measures were > 100 µM, 91.1 ± 0.38 µM and 76.06 ± 0.48 µM.
For `COC(=O)c1ccc(O)c(O)c1` [Compound 42, protocatechuic acid methyl ester], the IC50 was determined as 63.32 ± 0.41 µM in assay [1], 63 ± 0.65 µM against PTP1B and 83.21 ± 0.53 µM in assay [4].
`COc1cc(O)c2c(c1)C(=O)c1cc(C)cc(O)c1C2=O` [Compound 45, physcion]: the IC50 was > 100 µM in assay [1], 24.75 ± 0.18 µM at PTP1B, 30 ± 0.57 µM in assay [3] (setting [5]) and > 100 µM in assay [4].
Take `COc1ccc2c(c1)c(CC(=O)O)c(C)n2C(=O)c1ccc(Cl)cc1` [Indomethacin, reference compound]: the IC50 in assay [3] (setting [5]) was 8.01 µg/mL and 22.4 µM.
For the molecule (+)-pinoresinol [Compound 29], the IC50 in assay [1] was found to be 77.4 ± 2.98 µM; in assay [2], 52.1 ± 0.93 µM; in assay [3] (LPS (1 μg/mL)-stimulated RAW 264.7 cells, mean ± SD, n = 3, read-out: IC50 NO production anti-inflammatory effect), 69.94 ± 0.31 µM; in assay [4], 18.49 ± 0.09 µM.
